Laboratory results taken from patent US7420001B2 (Wyeth, priority 2003, dated 2008).
pIC50: −log10 of the molar value. Like-named read-outs stand apart in the source and are kept apart here.

Assays:
MMP-9 = molecular target: T1, MMP-9 (Homo sapiens, UniProt P14780); assay: MMP-9 activity assay; assay type: biochemical; settings: recombinant human MMP-9
T1 construct: Active, recombinant human MMP-9 (83 kDa) was purchased from Calbiochem (catalog #PF024); purchased Calbiochem PF024

MMP-1 = molecular target: T2, MMP-1 (Homo sapiens, UniProt P03956)
T2 sequence (P03956 100-269 limits assumed): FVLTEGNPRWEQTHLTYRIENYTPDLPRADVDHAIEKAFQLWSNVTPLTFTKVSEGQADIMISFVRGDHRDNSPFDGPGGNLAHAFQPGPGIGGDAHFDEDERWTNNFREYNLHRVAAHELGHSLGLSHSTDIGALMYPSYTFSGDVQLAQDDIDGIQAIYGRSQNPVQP

MMP-2 = molecular target: T3, MMP-2 (Homo sapiens, UniProt P08253); assay: In-vitro fluorescence assay of MMP-2 activity; assay type: biochemical; settings: recombinant human MMP-2; read-out: MMP-2 IC50
T3 construct: purchased Oncogene Research Products (Calbiochem) PF023
T3 sequence (P08253 110-660): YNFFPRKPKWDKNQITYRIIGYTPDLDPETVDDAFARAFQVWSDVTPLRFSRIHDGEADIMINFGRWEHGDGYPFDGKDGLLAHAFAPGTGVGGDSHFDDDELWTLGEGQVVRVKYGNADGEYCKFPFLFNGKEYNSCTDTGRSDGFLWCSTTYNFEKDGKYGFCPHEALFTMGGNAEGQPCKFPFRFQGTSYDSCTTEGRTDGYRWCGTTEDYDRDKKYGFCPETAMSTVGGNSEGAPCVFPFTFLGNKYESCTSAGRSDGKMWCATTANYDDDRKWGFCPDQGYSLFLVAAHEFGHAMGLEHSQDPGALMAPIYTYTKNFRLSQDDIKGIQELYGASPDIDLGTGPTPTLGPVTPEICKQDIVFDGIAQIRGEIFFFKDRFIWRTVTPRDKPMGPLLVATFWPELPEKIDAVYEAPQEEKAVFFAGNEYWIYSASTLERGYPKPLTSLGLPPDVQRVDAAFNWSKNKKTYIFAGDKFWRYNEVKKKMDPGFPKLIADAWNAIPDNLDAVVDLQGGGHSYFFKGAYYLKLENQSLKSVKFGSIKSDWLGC

MMP-14 = molecular target: T4, MMP-14 (Homo sapiens, UniProt P50281); assay: In-vitro fluorescence assay of MMP-14 activity; assay type: biochemical
T4 construct: 20 kDa; purchased Chemicon International, Inc. CC 1041

MMP-12 = molecular target: T5, MMP-12 (Homo sapiens, UniProt P39900); assay: In vitro fluorescence assay of MMP-12 activity; assay type: biochemical; settings: recombinant human MMP-12
T5 construct: made in house

MMP-13 = molecular target: T6, MMP-13 (Homo sapiens, UniProt P45452); assay: In-vitro fluorescence assay of MMP-13 activity; assay type: biochemical; settings: recombinant human catalytic domain of MMP-13; read-out: MMP-13 IC50
T6 construct: made in house

Aggrecanase-1 = molecular target: T7, Aggrecanase-1 (Homo sapiens, UniProt O75173); assay: Aggrecanase-1 FRET assay; assay type: biochemical; settings: rAgg1, WAAG-3R substrate; read-out: AGG-1 IC50
T7 sequence (O75173 213-837): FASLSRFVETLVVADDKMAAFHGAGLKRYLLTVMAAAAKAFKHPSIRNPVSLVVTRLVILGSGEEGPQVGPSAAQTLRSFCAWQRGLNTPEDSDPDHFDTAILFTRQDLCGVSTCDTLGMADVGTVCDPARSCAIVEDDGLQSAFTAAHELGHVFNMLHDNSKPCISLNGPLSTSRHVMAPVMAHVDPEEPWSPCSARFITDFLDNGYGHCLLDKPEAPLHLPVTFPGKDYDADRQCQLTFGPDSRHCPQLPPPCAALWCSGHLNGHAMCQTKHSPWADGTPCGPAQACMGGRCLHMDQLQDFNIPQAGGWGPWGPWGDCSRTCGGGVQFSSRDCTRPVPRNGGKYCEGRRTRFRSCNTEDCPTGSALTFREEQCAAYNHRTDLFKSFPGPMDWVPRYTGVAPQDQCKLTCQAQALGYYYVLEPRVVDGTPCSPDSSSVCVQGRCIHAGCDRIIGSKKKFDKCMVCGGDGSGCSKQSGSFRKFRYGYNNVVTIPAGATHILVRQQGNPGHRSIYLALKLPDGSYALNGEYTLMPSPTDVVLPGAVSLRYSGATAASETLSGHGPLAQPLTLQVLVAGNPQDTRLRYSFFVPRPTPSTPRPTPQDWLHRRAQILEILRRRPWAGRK
Experimental: h. Aggrecanase-1 FRET Assay:
The following protocol was used: • Fluorimeter was started and temperature set to 30° C., about 30 min before setting up the assay. The following reagents are used: • Buffer: 50 mM HEPES, pH 7.5, 100 mM NaCl, 5 mM CaCl2, 0.1% CHAPS, 5% glycerol. • rAgg1: 5 μg/ml (final concentration in the assay): • Substrate: WAAG-3R (MWT=1645.8, Anaspec, stored at 4° C.). Make a stock at 2 mg/ml in 100% DMSO. Measure the absorbance at 354 nm (ε=18172 M^−1 cm^−1) to determine the exact concentration. Dilute to 62.5 μM in buffer. Store unused 100% DMSO stock at −80° C. Final concentration of substrate in the assay is 25 μM. […] Make up inhibitors at 10× starting concentration in 100% DMSO. Perform serial dilutions (in duplicate) across the nunc plate in 100% DMSO; • Dilution plates: Nunc, polypropylene low binding (Nalgene) • Assay plate: Fluoronunc (Nalgene) • Fluorimeter: GeminiXS (Molecular Devices).; • The assay is performed as follows: The plates are set up so that the final column (12) is used for controls. Total reaction volume is 100 μl. Each compound is assayed in duplicate, so 4 compounds are screened per plate. • 1) Add buffer to the entire 96-well plate (30 ρl/well). • 2) Dilute rAgg1 to 25 μg/ml buffer just prior to addition on the plate. Add 20 μl/well to all wells. Mix 6 times. • 3) Add 10 μl/well of 10× inhibitors from the working plate, except column 12. Mix 6 times. […] Mix 6 times.
The reaction is monitored for 30-40 min at 30° C. λex: 340 nm and λ em: 420 nm). The fluorescence is linear during this time and the slope of the line (Vmax/sec) represents the initial reaction rate, ν. The maximal rate of cleavage of substrate is determined in the absence of inhibitor. The percent inhibition of activity in the presence of inhibitor is calculated as follows:
[formula] The IC50 was obtained by fitting the initial rate, ν, or % inhibition at each concentration of inhibitor to the following equation in Excel. y=(a−d)/(1+C/IC50)^n)+d This model describes a sigmoidal curve with an adjustable baseline, […]. y is the % inhibition or initial rate of reaction, C is the concentration of inhibitor under test. a is the limiting response as C approaches zero. […] The sign of n is positive when the response increases with increasing dose and is negative when the response decreases with increasing dose (inhibition).

MMP-7 = molecular target: T8, MMP-7 (Homo sapiens, UniProt P09237); assay: MMP-7 activity assay; assay type: biochemical; settings: recombinant human MMP-7
T8 construct: Active, recombinant human MMP-7 was purchased from Calbiochem (catalog #444270; expressed in E. coli, 19 kDa); purchased Calbiochem 444270; host or cells: E. coli
T8 sequence (P09237 95-267): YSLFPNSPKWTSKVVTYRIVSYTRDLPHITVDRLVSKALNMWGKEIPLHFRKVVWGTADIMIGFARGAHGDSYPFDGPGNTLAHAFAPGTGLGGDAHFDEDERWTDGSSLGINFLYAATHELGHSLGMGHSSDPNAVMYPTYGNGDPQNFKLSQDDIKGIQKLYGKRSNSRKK

[1] = recombinant human catalytic domain of MMP-14

T1 sequence (P14780 107-707 limits assumed): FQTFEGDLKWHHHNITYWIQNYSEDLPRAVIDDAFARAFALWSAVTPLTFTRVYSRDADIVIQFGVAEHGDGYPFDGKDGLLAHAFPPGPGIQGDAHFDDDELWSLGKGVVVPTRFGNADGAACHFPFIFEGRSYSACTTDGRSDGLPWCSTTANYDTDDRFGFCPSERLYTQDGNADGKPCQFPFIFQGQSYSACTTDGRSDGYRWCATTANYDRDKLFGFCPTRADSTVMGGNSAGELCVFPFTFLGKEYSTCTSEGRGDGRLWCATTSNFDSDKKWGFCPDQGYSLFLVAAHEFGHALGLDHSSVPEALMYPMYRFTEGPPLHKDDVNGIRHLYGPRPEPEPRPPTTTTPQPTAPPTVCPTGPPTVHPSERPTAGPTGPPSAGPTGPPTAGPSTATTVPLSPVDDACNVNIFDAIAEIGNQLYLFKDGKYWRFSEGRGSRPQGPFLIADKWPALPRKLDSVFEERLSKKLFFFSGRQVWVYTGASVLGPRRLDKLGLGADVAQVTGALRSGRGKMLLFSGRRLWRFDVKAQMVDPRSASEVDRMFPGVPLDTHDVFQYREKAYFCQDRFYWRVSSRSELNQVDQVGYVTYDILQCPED
T5 sequence (P39900 106-280 limits assumed): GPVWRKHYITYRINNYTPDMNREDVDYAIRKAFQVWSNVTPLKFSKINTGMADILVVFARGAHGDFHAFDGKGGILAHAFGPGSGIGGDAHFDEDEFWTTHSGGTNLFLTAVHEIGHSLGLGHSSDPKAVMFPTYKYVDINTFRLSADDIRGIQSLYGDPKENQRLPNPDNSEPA

| Structure (SMILES) | pIC50 (MMP-1) | pIC50 (MMP-12) | pIC50 (MMP-14; [1]) | pIC50 (MMP-13) | pIC50 (Aggrecanase-1) | pIC50 (MMP-9) | pIC50 (MMP-2) | pIC50 (MMP-14) | pIC50 (MMP-7) | inhibition at […] (MMP-14; read-out: MMP-14 % inhibition at a concentration, at 1.6 uM) |
| --- | --- | --- | --- | --- | --- | --- | --- | --- | --- | --- |
| CC(C)[C@H](NS(=O)(=O)c1ccc(-c2ccc(NC(=O)c3cc4ccccc4o3)cc2)cc1)C(=O)O [Example 2, L-2-{4′-[(Benzofuran-2-carbonyl)-amino]-biphenyl-4-sulfonylamino}-3-methyl-butyric acid] | < 5.46 | – | – | – | – | 5.96 | 8.19 | 5.66 | – | – |
| CCC(C)Oc1cccc2oc(C(=O)Nc3ccc(-c4ccc(S(=O)(=O)N[C@H](C(=O)O)C(C)C)cc4)cc3)c(C)c12 (stereo partly drawn) [Example 53, L-2-{4′-[(4-sec-Butoxy-3-methyl-benzofuran-2-carbonyl)-amino]-biphenyl-4-sulfonylamino}-3-methyl-butyric acid] | – | – | – | 7.77 | – | < 5.40 | 5.00 | – | 5.59 | – |
| Cc1c(C(=O)Oc2ccc(-c3ccc(S(=O)(=O)N[C@@H](C(=O)O)C(C)C)cc3)cc2)oc2ccccc12 [Example 134, D-3-Methyl-benzofuran-2-carboxylic acid 4′-(1-carboxy-2-methyl-propylsulfamoyl)-biphenyl-4-yl ester] | – | – | 5.20 | 8.92 | 6.95 | – | 7.77 | – | – | – |
| COc1c(Br)ccc2oc(COc3ccc(-c4ccc(S(=O)(=O)N[C@@H](C(=O)O)C(C)C)cc4)cc3)c(C)c12 [Example 136, D-2-[4′-(5-Bromo-4-methoxy-3-methyl-benzofuran-2-ylmethoxy)-biphenyl-4-sulfonylamino]-3-methyl-butyricacid] | 3.40 | 7.70 | 5.30 | 8.74 | 6.37 | < 5.15 | 6.87 | – | 5.96 | – |
| CC(C)[C@@H](NS(=O)(=O)c1ccc(-c2ccc(OCc3nc4ccccc4s3)cc2)cc1)C(=O)O [Example 137, D-2-[4′-(Benzothiazol-2-ylmethoxy)-biphenyl-4-sulfonylamino]-3-methyl-butyric acid] | – | – | – | 8.34 | 5.60 | – | 7.62 | – | – | 49% |

Second part, led by results:

| pIC50 (MMP-1) | pIC50 (MMP-12) | pIC50 (MMP-14; [1]) | pIC50 (MMP-13) | pIC50 (Aggrecanase-1) | Structure (SMILES) | pIC50 (MMP-9) | pIC50 (MMP-2) | pIC50 (MMP-14) | pIC50 (MMP-7) | inhibition at […] (MMP-14; read-out: MMP-14 % inhibition at a concentration, at 1.6 uM) |
| --- | --- | --- | --- | --- | --- | --- | --- | --- | --- | --- |
| < 4.74 | 7.07 | 4.58 | 7.96 | 4.85 | COCCCc1cccc2oc(C(=O)Nc3ccc(-c4ccc(S(=O)(=O)N[C@H](C(=O)O)C(C)C)cc4)cc3)c(C)c12 [Example 30, L-2-(4′-{[4-(3-Methoxy-propyl)-3-methyl-benzofuran-2-carbonyl]-amino}-biphenyl-4-sulfonylamino)-3-methyl-butyric acid] | 5.82 | 5.40 | – | 5.22 | – |
| 4.00 | – | 4.92 | 8.28 | 6.10 | Cc1cc(-c2ccc(S(=O)(=O)N[C@@H](C(=O)O)C(C)C)cc2)cc(C)c1OC(=O)c1cc2ccccc2o1 [Example 133, D-Benzofuran-2-carboxylic acid 4′-(1-carboxy-2-methyl-propylsulfamoyl)-3,5-dimethyl-biphenyl-4-yl ester] | – | 7.19 | – | – | – |
| 3.30 | – | 5.84 | 8.96 | 4.90 | CC(C)[C@@H](NS(=O)(=O)c1ccc(-c2ccc(CS(=O)(=O)c3cc4ccccc4o3)cc2)cc1)C(=O)O [Example 164, D-2-[4′-(Benzofuran-2-sulfonylmethyl)-biphenyl-4-sulfonylamino]-3-methyl-butyric acid] | – | 8.25 | – | – | – |
| – | 8.34 | 5.67 | 8.92 | 4.70 | CC(C)[C@@H](NS(=O)(=O)c1ccc(-c2ccc(C[S+]([O-])c3cc4ccccc4o3)cc2)cc1)C(=O)O (stereo partly drawn) [Example 165, D-2-[4′-(Benzofuran-2-sulfinylmethyl)-biphenyl-4-sulfonylamino]-3-methyl-butyric acid] | – | 8.25 | – | – | – |
| 4.73 | – | 5.05 | 7.54 | 4.37 | CC(C)[C@@H](NS(=O)(=O)c1ccc(-c2ccc(NC(=O)c3ccco3)cc2)cc1)C(=O)O [Example 172, (R)-2-{4′-[(Furan-2-carbonyl)-amino]-biphenyl-4-sulfonylamino}-3-methyl-butyric acid] | – | 8.16 | – | – | – |
